Reference: patent US20060069132A1, “Azolecarboxamide herbicides” (priority 2004, published 2006)

Experiments:
[1] = test system: wild oat; assay: Test B postemergence herbicide test; format: in vivo, Avena fatua; settings: scale 0 (no effect) to 100 (complete control); for Oat, Wild plant response rating: postemergence, visual rating
Procedure, shortened: (§1)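 Scale 0–100: zero equals no visible effect, 100 complete control, judged by eye relative to controls. Timing: 13 to 15 days in greenhouse post-treatment. Growth stage at spraying: two leaves (paddy) or one to four leaves, 2–18 cm (postemergence).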

[2] = test system: blackgrass; assay: Test B postemergence herbicide test; format: in vivo, Alopecurus myosuroides; settings: scale 0 (no effect) to 100 (complete control); for Blackgrass plant response rating: postemergence, visual rating
Procedure, shortened: as §1

[3] = test system: Surinam grass; assay: Test B pre-/postemergence herbicide test; format: in vivo, Urochloa decumbens; settings: for Surinam Grass plant response rating: postemergence, visual rating
Procedure, shortened: (§2)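 Pre: seeds sown, then sprayed. Post: 1–4-leaf plants (2–18 cm) sprayed at the same time. Paddy: flooded, treated at 2-leaf stage. Formulation: non-phytotoxic solvent with surfactant. Greenhouse 13–15 days; visual 0–100 score relative to controls.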

[4] = test system: velvetleaf; assay: Test B pre-/postemergence herbicide test; format: in vivo, Abutilon theophrasti; settings: for Velvetleaf plant response rating: postemergence, visual rating
Procedure, shortened: as §2

[5] = test system: rice; assay: Test B flooded paddy test; format: in vivo, Oryza sativa; settings: 1000 g ai/ha, visual rating, scale 0 to 100 (0 no effect, 100 complete control), 13 to 15 days
Procedure, shortened: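 Plants grow to 1- to 4-leaf stage (2–18 cm) for postemergence spraying, or to 2-leaf stage for the paddy test. Formulated compound is applied. Greenhouse holding lasts 13–15 days. Response is scored visually relative to controls, 0 no effect to 100 complete control; a dash means no result.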

[6] = test system: pigweed; assay: Test B pre-/postemergence herbicide test; format: in vivo, Amaranthus retroflexus; settings: for Pigweed plant response rating: postemergence, visual rating
Procedure, shortened: as §2

[7] = test system: barnyardgrass; assay: Test B flooded paddy test; format: in vivo, Echinochloa crus-galli; settings: 1000 g ai/ha, visual rating, scale 0 to 100 (0 no effect, 100 complete control), 13 to 15 days
Procedure, shortened: as §1

[8] = test system: wheat; assay: Test B postemergence herbicide test; format: in vivo, Triticum aestivum; set-up: key to Wheat plant response rating: 0 = no effect, 100 = complete control; settings: scale 0 (no effect) to 100 (complete control); for Wheat plant response rating: postemergence, visual rating
Procedure, shortened: as §1

[9] = test system: small flower umbrella sedge; assay: Test B flooded paddy test; format: in vivo, Cyperus difformis; settings: 1000 g ai/ha, visual rating, scale 0 to 100 (0 no effect, 100 complete control), 13 to 15 days
Procedure, shortened: as §1

[10] = test system: morningglory; assay: Test B pre-/postemergence herbicide test; format: in vivo, Ipomoea coccinea; settings: for Morningglory plant response rating: postemergence, visual rating
Procedure, shortened: (§3)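 Formulation: non-phytotoxic solvent mix with surfactant. Timing: preemergence on seed and postemergence on 2–18 cm plants, applied concurrently. Readout after 13–15 d greenhouse: visual 0–100 control rating against controls.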

[11] = test system: cocklebur; assay: Test B pre-/postemergence herbicide test; format: in vivo, Xanthium strumarium; settings: for Cocklebur plant response rating: postemergence, visual rating
Procedure, shortened: as §3

[12] = test system: large crabgrass; assay: Test B pre-/postemergence herbicide test; format: in vivo, Digitaria sanguinalis; settings: for Crabgrass, Large plant response rating: postemergence, visual rating
Procedure, shortened: as §2

[13] = test system: barnyardgrass; assay: Test B pre-/postemergence herbicide test; format: in vivo, Echinochloa crus-galli; settings: for Barnyardgrass plant response rating: postemergence, visual rating
Procedure, shortened: as §3

[14] = test system: giant foxtail; assay: Test B pre-/postemergence herbicide test; format: in vivo, Setaria faberi; settings: for Foxtail, Giant plant response rating: postemergence, visual rating
Procedure, shortened: as §2

[15] = test system: lambsquarters; assay: Test B pre-/postemergence herbicide test; format: in vivo, Chenopodium album; settings: for Lambsquarters plant response rating: postemergence, visual rating
Procedure, shortened: as §2

[16] = Postemergence, 500 g ai/ha, visual rating after 13 to 15 days
[17] = 500 g ai/ha, visual rating 0-100, 0 no effect, 100 complete control, preemergence
[18] = Postemergence, 500 g ai/ha, visual rating after 13 to 15 days, scale 0 (no effect) to 100 (complete control)
[19] = 125 g ai/ha, scale 0 (no effect) to 100 (complete control)
[20] = preemergence, 125 g ai/ha, 0 to 100 scale, 0 is no effect, 100 is complete control
[21] = 500 g ai/ha, scale 0 (no effect) to 100 (complete control)

Question: What does the source list for `CCOC(=O)c1cc(NC(=O)c2cc(C(C)(C)C)nn2CC)ccc1OCC` [Compound 95]?
Answer: Plant response rating, Oat, Wild [1, 16]: 20; Oat, Wild plant response rating ([1]; 125 g ai/ha): 10; Plant response rating, Blackgrass [2, 16]: 0; Blackgrass plant response rating ([2]; 125 g ai/ha): 0; Plant response rating, Surinam Grass [3, 17]: 70; Plant response rating, Surinam Grass [3, 18]: 20; Surinam Grass plant response rating [3, 19]: 20; Plant response rating, Surinam Grass [3, 20]: 20; Plant response rating, Velvetleaf [4, 17]: 60; Plant response rating, Velvetleaf [4, 18]: 60; Velvetleaf plant response rating [4, 19]: 50; Plant response rating, Velvetleaf [4, 20]: 0; Rice plant response rating [5]: 60; Plant response rating, Pigweed [6, 17]: 100; Plant response rating, Pigweed [6, 18]: 100; Pigweed plant response rating [6, 19]: 90; Plant response rating, Pigweed [6, 20]: 100; Barnyardgrass plant response rating [7]: 50; Plant response rating, Wheat [8, 16]: 10; Wheat plant response rating ([8]; 125 g ai/ha): 10; Sedge, Umbrella plant response rating [9]: 80; Plant response rating, Morningglory [10, 18]: 60; Morningglory plant response rating [10, 19]: 0; Plant response rating, Morningglory [10, 20]: 10; Plant response rating, Cocklebur [11, 17]: 0; Plant response rating, Cocklebur [11, 18]: 70; Cocklebur plant response rating [11, 19]: 60; Plant response rating, Cocklebur [11, 20]: 0; Plant response rating, Crabgrass, Large [12, 17]: 90; Plant response rating, Crabgrass, Large [12, 18]: 50; Crabgrass, Large plant response rating [12, 19]: 0; Plant response rating, Crabgrass, Large [12, 20]: 60; Plant response rating, Barnyardgrass [13, 17]: 80; Plant response rating, Barnyardgrass [13, 18]: 20; Barnyardgrass plant response rating [13, 19]: 0; Plant response rating, Barnyardgrass [13, 20]: 50; Plant response rating, Foxtail, Giant [14, 17]: 100; Plant response rating, Foxtail, Giant [14, 18]: 30; Foxtail, Giant plant response rating [14, 19]: 10; Plant response rating, Foxtail, Giant [14, 20]: 50; Plant response rating, Lambsquarters [15, 17]: 100; Plant response rating, Lambsquarters [15, 18]: 100; Lambsquarters plant response rating [15, 19]: 100; Plant response rating, Lambsquarters [15, 20]: 100

Question: With `CCn1nc(C(C)(C)C)cc1C(=O)Nc1cccc(C(C)=O)c1` [Compound 122] as the compound, how does the “Oat, Wild plant response rating” value ([1]; 125 g ai/ha) read?
Answer: 10

Question: And the “Oat, Wild plant response rating” value ([1]; 500 g ai/ha)?
Answer: 40

Question: What about the “Blackgrass plant response rating” value ([2]; 125 g ai/ha) of the same compound?
Answer: 0

Question: What about the “Blackgrass plant response rating” value ([2]; 500 g ai/ha) of the same compound?
Answer: 10

Question: And the “Plant response rating, Surinam Grass” value [3, 17]?
Answer: 70

Question: What about the “Surinam Grass plant response rating” value [3, 19] of the same compound?
Answer: 10

Question: And the “Surinam Grass plant response rating” value [3, 21]?
Answer: 10

Question: And the “Plant response rating, Surinam Grass” value [3, 20]?
Answer: 20

Question: And the “Plant response rating, Velvetleaf” value [4, 17]?
Answer: 60

Question: What about the “Velvetleaf plant response rating” value [4, 19] of the same compound?
Answer: 10

Question: What about the “Velvetleaf plant response rating” value [4, 21] of the same compound?
Answer: 20

Question: What about the “Plant response rating, Velvetleaf” value [4, 20] of the same compound?
Answer: 40

Question: What about the “Rice plant response rating” value [5] of the same compound?
Answer: 70

Question: What about the “Plant response rating, Pigweed” value [6, 17] of the same compound?
Answer: 80

Question: What about the “Pigweed plant response rating” value [6, 19] of the same compound?
Answer: 0

Question: What about the “Pigweed plant response rating” value [6, 21] of the same compound?
Answer: 10

Question: What about the “Plant response rating, Pigweed” value [6, 20] of the same compound?
Answer: 70

Question: And the “Barnyardgrass plant response rating” value [7]?
Answer: 60

Question: And the “Wheat plant response rating” value ([8]; 125 g ai/ha)?
Answer: 0

Question: And the “Wheat plant response rating” value ([8]; 500 g ai/ha)?
Answer: 10

Question: And the “Sedge, Umbrella plant response rating” value [9]?
Answer: 80

Question: What about the “Plant response rating, Morningglory” value [10, 17] of the same compound?
Answer: 70

Question: What about the “Morningglory plant response rating” value [10, 19] of the same compound?
Answer: 0

Question: And the “Morningglory plant response rating” value [10, 21]?
Answer: 0

Question: And the “Plant response rating, Morningglory” value [10, 20]?
Answer: 20

Question: What about the “Plant response rating, Cocklebur” value [11, 17] of the same compound?
Answer: 70

Question: What about the “Cocklebur plant response rating” value [11, 19] of the same compound?
Answer: 70

Question: And the “Cocklebur plant response rating” value [11, 21]?
Answer: 90

Question: And the “Plant response rating, Cocklebur” value [11, 20]?
Answer: 20

Question: What about the “Plant response rating, Crabgrass, Large” value [12, 17] of the same compound?
Answer: 100

Question: What about the “Crabgrass, Large plant response rating” value [12, 19] of the same compound?
Answer: 10

Question: And the “Crabgrass, Large plant response rating” value [12, 21]?
Answer: 10

Question: And the “Plant response rating, Crabgrass, Large” value [12, 20]?
Answer: 90

Question: And the “Plant response rating, Barnyardgrass” value [13, 17]?
Answer: 90

Question: What about the “Barnyardgrass plant response rating” value [13, 19] of the same compound?
Answer: 0

Question: What about the “Barnyardgrass plant response rating” value [13, 21] of the same compound?
Answer: 20

Question: What about the “Plant response rating, Barnyardgrass” value [13, 20] of the same compound?
Answer: 80

Question: What about the “Plant response rating, Foxtail, Giant” value [14, 17] of the same compound?
Answer: 80

Question: What about the “Foxtail, Giant plant response rating” value [14, 19] of the same compound?
Answer: 10

Question: What about the “Foxtail, Giant plant response rating” value [14, 21] of the same compound?
Answer: 20

Question: What about the “Plant response rating, Foxtail, Giant” value [14, 20] of the same compound?
Answer: 50

Question: What about the “Plant response rating, Lambsquarters” value [15, 17] of the same compound?
Answer: 100

Question: And the “Lambsquarters plant response rating” value [15, 19]?
Answer: 0

Question: What about the “Lambsquarters plant response rating” value [15, 21] of the same compound?
Answer: 0

Question: What about the “Plant response rating, Lambsquarters” value [15, 20] of the same compound?
Answer: 80
